{"source": "patent US20030082625A1", "about": "“Method for the pretreatment of a surface for the reduction of non-specific binding by chemical entities” (priority 2001, published 2003)", "key": {"[1]": {"test": "Non-specific binding (NSB) of drugs to ultrafiltration membrane filter, regenerated cellulose (Millipore Ultrafree-MC UFC 3LGC00, 10 k NMWL)", "format": "physicochemical", "settings": "for NSB (%) Control / NSB (%) Tween 80 / NSB (%) BAK / NSB (%) Serum / NSB (%) 0.5% BAK / NSB (%) 1% BAK / NSB (%) 2% BAK / NSB (%) 5% BAK / NSB (%) 0.5% Tween / NSB (%) 1% Tween / NSB (%) 2% Tween / NSB (%) 5% Tween / NSB (%) SLS: regenerated cellulose; for NSB (%) Tween 80: pretreatment with 0.5% Tween 80; for NSB (%) BAK: pretreatment with 0.5% benzalkonium chloride; for NSB (%) Serum: pretreatment with human serum; for NSB (%) RC: regenerated cellulose membrane, drug concentration 10 uM; for NSB (%) 0.5% BAK: pretreatment 0.5% benzalkonium chloride; for NSB (%) 0.5% BAK / NSB (%) 1% BAK / NSB (%) 2% BAK / NSB (%) 5% BAK: drug 10 uM; for NSB (%) 1% BAK: pretreatment 1% benzalkonium chloride; for NSB (%) 2% BAK: pretreatment 2% benzalkonium chloride; for NSB (%) 5% BAK: pretreatment 5% benzalkonium chloride; for NSB (%) 0.5% Tween: pretreatment 0.5% Tween 80; for NSB (%) 0.5% Tween / NSB (%) 1% Tween / NSB (%) 2% Tween / NSB (%) 5% Tween: drug 5 uM; for NSB (%) 1% Tween: pretreatment 1% Tween 80; for NSB (%) 2% Tween: pretreatment 2% Tween 80; for NSB (%) 5% Tween: pretreatment 5% Tween 80; for NSB (%) SLS: pretreatment with 0.5% sodium lauryl sulfate", "protocol": "(§1) Various experiments were performed using the following reagents, surfactants and reservoirs (also comprising ultrafiltration units): human serum, pH 7.4 phosphate buffered saline (PBS), drug solution (i.e. compound) in serum at a concentration of 1-50 μM, and drug solution in PBS at a concentration of 1-50 μM were used as reagents. Surfactant solutions were 0.01-20% Tween 80 (polyoxyethylene 20 sorbitan monooleate) in PBS as neutral solution, 0.01-20% Benzalkonium chloride (BAK) in PBS as cationic solution, 0.01-20% Sodium lauryl sulfate (SLS) in PBS as anionic solution. An ultrafiltration reservoir (Millipore, Ultrafree-MC) comprising regenerated cellulose (UFC 3LGC00, 10 k NMWL) or polyethersulfone (UFC 3BSC00, 10 k NMWL) was used.\n(§2) The upper ultrafiltration cup was connected to the reservoir tube and 25 μL surfactant solution was added to each well. After bedewing for 5 min, the reservoir tube containing the ultrafiltration cup was centrifuged for 10 min at 3000 g and room temperature.\n(§3) 200 μL of PBS was added to each ultrafiltration cup and equilibrated for 30 min. Remaining PBS was removed from the ultrafiltration cup by gentle tapping the cup. The upper ultrafiltration cup was reconnected to a new reservoir tube, and 400 μL drug solution (1-50 μM) in serum or PBS was applied and equilibrated for 1 hr at room temperature.\n(§4) The ultrafiltration tube was centrifuged for 18 min at 3000 g at room temperature. 50 μL sample was taken from the receiver (filtrate) and donor (drug solution in serum or PBS) for bioanalysis. Non-specific binding was calculated as follows:\n(§5) NSB=(Cf1-Cf2)/Cf1, where NSB: non specific binding to membrane filter at pH 7.4 isotonic PBS, Cf1: free drug before filtration, and Cf2: free drug in the filtrate after filtration"}, "[2]": {"test": "Non-specific binding (NSB) of drugs to ultrafiltration membrane filter, polyethersulfone (Millipore Ultrafree-MC UFC 3BSC00, 10 k NMWL)", "format": "physicochemical", "settings": "no pretreatment, drug concentration 10 uM", "protocol": "as §1, §2, §3, §4, §5"}, "[3]": {"settings": "no surfactant pretreatment, drug concentration 5 uM, pH 7.4 PBS"}, "[4]": {"settings": "no pretreatment, drug concentration 50 uM"}}, "data": [{"molecule": "Cn1c(=O)c2[nH]cnc2n(C)c1=O", "note": "[Theophylline]", "values": [{"measurement": "NSB (%) Control", "setting": "[1]; [3]", "value": 8, "unit": "%"}, {"measurement": "NSB (%) Tween 80", "setting": "[1]; drug concentration 5 uM", "value": 0, "unit": "%"}, {"measurement": "NSB (%) BAK", "setting": "[1]; drug concentration 5 uM", "value": 0, "unit": "%"}]}, {"molecule": "CC(C)Cc1ccc(C(C)C(=O)O)cc1", "note": "(centres unmarked) [Ibuprofen]", "values": [{"measurement": "NSB (%) Control", "setting": "[1]; [3]", "value": 29, "unit": "%"}, {"measurement": "NSB (%) Tween 80", "setting": "[1]; drug concentration 5 uM", "value": 2.3, "unit": "%"}]}, {"molecule": "COc1cc([C@@H]2c3cc4c(cc3[C@@H](O[C@@H]3O[C@@H]5CO[C@@H](C)O[C@H]5[C@H](O)[C@H]3O)[C@H]3COC(=O)[C@H]23)OCO4)cc(OC)c1O", "note": "[Etoposide]", "values": [{"measurement": "NSB (%) Control", "setting": "[1]; [4]", "value": 91, "unit": "%"}, {"measurement": "NSB (%) Control", "setting": "[1]; [3]", "value": 91, "unit": "%"}, {"measurement": "NSB (%) Tween 80", "setting": "[1]; drug concentration 5 uM", "value": 23.1, "unit": "%"}, {"measurement": "NSB (%) BAK", "setting": "[1]; drug concentration 5 uM", "value": 28.3, "unit": "%"}, {"measurement": "NSB (%) Serum", "setting": "[1]; drug concentration 50 uM", "value": 93, "unit": "%"}, {"measurement": "NSB (%) RC", "setting": "[1]; no pretreatment", "value": 91, "unit": "%"}, {"measurement": "NSB (%) PES", "setting": "[2]", "value": 93, "unit": "%"}]}, {"molecule": "CC[C@]1(O)C[C@@H]2CN(CCc3c([nH]c4ccccc34)[C@@](C(=O)OC)(c3cc4c(cc3OC)N(C)[C@H]3[C@@](O)(C(=O)OC)[C@H](OC(C)=O)[C@]5(CC)C=CCN6CC[C@]43[C@@H]65)C2)C1", "note": "[Vinblastine]", "values": [{"measurement": "NSB (%) Control", "setting": "[1]; [3]", "value": 95, "unit": "%"}, {"measurement": "NSB (%) 0.5% BAK", "setting": "[1]", "value": 82, "unit": "%"}, {"measurement": "NSB (%) 1% BAK", "setting": "[1]", "value": 79, "unit": "%"}, {"measurement": "NSB (%) 2% BAK", "setting": "[1]", "value": 68, "unit": "%"}, {"measurement": "NSB (%) 5% BAK", "setting": "[1]", "value": 59, "unit": "%"}, {"measurement": "NSB (%) Tween 80", "setting": "[1]; drug concentration 5 uM", "value": 95.2, "unit": "%"}, {"measurement": "NSB (%) BAK", "setting": "[1]; drug concentration 5 uM", "value": 64, "unit": "%"}, {"measurement": "NSB (%) RC", "setting": "[1]; no pretreatment", "value": 95, "unit": "%"}, {"measurement": "NSB (%) PES", "setting": "[2]", "value": 95, "unit": "%"}]}, {"molecule": "COc1ccc(CCN(C)CCCC(C#N)(c2ccc(OC)c(OC)c2)C(C)C)cc1OC", "note": "(centres unmarked) [Verapamil]", "values": [{"measurement": "NSB (%) 0.5% BAK", "setting": "[1]", "value": 43, "unit": "%"}, {"measurement": "NSB (%) 1% BAK", "setting": "[1]", "value": 34, "unit": "%"}, {"measurement": "NSB (%) 2% BAK", "setting": "[1]", "value": 25, "unit": "%"}, {"measurement": "NSB (%) 5% BAK", "setting": "[1]", "value": 12, "unit": "%"}]}, {"molecule": "CC(C(=O)O)c1cccc(C(=O)c2ccccc2)c1", "note": "(centres unmarked) [Ketoprofen]", "values": [{"measurement": "NSB (%) Control", "setting": "[1]; [3]", "value": 34, "unit": "%"}, {"measurement": "NSB (%) Tween 80", "setting": "[1]; drug concentration 5 uM", "value": 4.1, "unit": "%"}]}, {"molecule": "C[C@]12CCC(=O)C=C1CC[C@@H]1[C@@H]2[C@@H](O)C[C@@]2(C)[C@H]1CC[C@]2(O)C(=O)CO", "note": "[Hydrocortisone]", "values": [{"measurement": "NSB (%) Control", "setting": "[1]; [4]", "value": 87, "unit": "%"}, {"measurement": "NSB (%) Control", "setting": "[1]; [3]", "value": 87, "unit": "%"}, {"measurement": "NSB (%) 0.5% Tween", "setting": "[1]", "value": 52, "unit": "%"}, {"measurement": "NSB (%) 0.5% BAK", "setting": "[1]", "value": 30, "unit": "%"}, {"measurement": "NSB (%) 1% Tween", "setting": "[1]", "value": 35, "unit": "%"}, {"measurement": "NSB (%) 1% BAK", "setting": "[1]", "value": 22, "unit": "%"}, {"measurement": "NSB (%) 2% Tween", "setting": "[1]", "value": 33, "unit": "%"}, {"measurement": "NSB (%) 2% BAK", "setting": "[1]", "value": 16, "unit": "%"}, {"measurement": "NSB (%) 5% Tween", "setting": "[1]", "value": 30, "unit": "%"}, {"measurement": "NSB (%) 5% BAK", "setting": "[1]", "value": 14, "unit": "%"}, {"measurement": "NSB (%) Tween 80", "setting": "[1]; drug concentration 5 uM", "value": 21.1, "unit": "%"}, {"measurement": "NSB (%) BAK", "setting": "[1]; drug concentration 5 uM", "value": 25, "unit": "%"}, {"measurement": "NSB (%) SLS", "setting": "[1]; drug concentration 50 uM", "value": 62, "unit": "%"}, {"measurement": "NSB (%) Serum", "setting": "[1]; drug concentration 50 uM", "value": 84, "unit": "%"}, {"measurement": "NSB (%) RC", "setting": "[1]; no pretreatment", "value": 87, "unit": "%"}, {"measurement": "NSB (%) PES", "setting": "[2]", "value": 71, "unit": "%"}]}, {"molecule": "Cn1c(=O)c2c(ncn2C)n(C)c1=O", "note": "[Caffeine]", "values": [{"measurement": "NSB (%) Control", "setting": "[1]; [3]", "value": 17, "unit": "%"}, {"measurement": "NSB (%) Tween 80", "setting": "[1]; drug concentration 5 uM", "value": 0, "unit": "%"}, {"measurement": "NSB (%) BAK", "setting": "[1]; drug concentration 5 uM", "value": 0, "unit": "%"}]}, {"molecule": "CC(C)NCC(O)COc1cccc2ccccc12", "note": "(centres unmarked) [Propranolol]", "values": [{"measurement": "NSB (%) Control", "setting": "[1]; [4]", "value": 91, "unit": "%"}, {"measurement": "NSB (%) Control", "setting": "[1]; [3]", "value": 91, "unit": "%"}, {"measurement": "NSB (%) 0.5% Tween", "setting": "[1]", "value": 66, "unit": "%"}, {"measurement": "NSB (%) 0.5% BAK", "setting": "[1]", "value": 14, "unit": "%"}, {"measurement": "NSB (%) 1% Tween", "setting": "[1]", "value": 65, "unit": "%"}, {"measurement": "NSB (%) 1% BAK", "setting": "[1]", "value": 15, "unit": "%"}, {"measurement": "NSB (%) 2% Tween", "setting": "[1]", "value": 60, "unit": "%"}, {"measurement": "NSB (%) 2% BAK", "setting": "[1]", "value": 5, "unit": "%"}, {"measurement": "NSB (%) 5% Tween", "setting": "[1]", "value": 52, "unit": "%"}, {"measurement": "NSB (%) 5% BAK", "setting": "[1]", "value": 10, "unit": "%"}, {"measurement": "NSB (%) Tween 80", "setting": "[1]; drug concentration 5 uM", "value": 46.5, "unit": "%"}, {"measurement": "NSB (%) BAK", "setting": "[1]; drug concentration 5 uM", "value": 13, "unit": "%"}, {"measurement": "NSB (%) SLS", "setting": "[1]; drug concentration 50 uM", "value": 84, "unit": "%"}, {"measurement": "NSB (%) Serum", "setting": "[1]; drug concentration 50 uM", "value": 90, "unit": "%"}, {"measurement": "NSB (%) RC", "setting": "[1]; no pretreatment", "value": 91, "unit": "%"}, {"measurement": "NSB (%) PES", "setting": "[2]", "value": 69, "unit": "%"}]}, {"molecule": "Cc1cc(=O)n(-c2ccccc2)n1C", "note": "[Antipyrine]", "values": [{"measurement": "NSB (%) Control", "setting": "[1]; [3]", "value": 10, "unit": "%"}, {"measurement": "NSB (%) Tween 80", "setting": "[1]; drug concentration 5 uM", "value": 0, "unit": "%"}, {"measurement": "NSB (%) BAK", "setting": "[1]; drug concentration 5 uM", "value": 0, "unit": "%"}]}]}
